Reference: patent EP0897720A1, “Droloxifene for prevention of breast cancer” (Pfizer Products Inc., priority 1997, dated 1999)

Tests used:
[1] = tested on: puberal, female sprague-Dawley rats; experiment: Anti-uterotrophic effect (modified Dorfman Test); type: in vivo; details: 3 mg./kg./day by stomach tube, six times weekly over 21 days, 0.25% aqueous agar suspension
Experimental: The anti-uterotrophic effect was determined according to a modified "Dorfman Test" [R. I. Dorfman, Methods in Hormone Research II, p. […]

[2] = tested on: 7,12-dimethylbenz(a)anthraceneinduced mammary tumor; experiment: Inhibitory effect on the mammary tumor (DMBA-induced tumor model); type: in vivo, female Sprague-Dawley rat (Hanover breed); details: 3 mg./kg./day by stomach tube, six times weekly over 28 days; control animals taken as 100%
Experimental: Twice weekly and on the 28th day of testing the number of animals was determined and the tumor surface (mm^2/animal) of the therapy animals and control animals was measured. At the end of testing, the percentage increase of the average tumor surface of the treated animals was determined in comparison to the control animals, the surface of the latter being taken as 100%.

[3] = tested on: epithelial cells of the uterus; details: stated as a known side-effect of earlier anti-estrogens; cited from earlier work

**Q.** With `CC/C(=C(/c1ccc(OCCN(C)C)cc1)c1cccc(O)c1)c1ccccc1` [Compound 1, 1-[4'-(2-dimethylaminoethoxy)phenyl]-1-(3'-hydroxyphenyl)-2-phenylbut-1-ene] as the molecule, how does the “Uterine Weight compared to Controlled Animals” value [1] read?
**A.** The value was -42%.

**Q.** What about the “Relative Increase of the Average Tumor Surface” value [2] of the same molecule?
**A.** Its value is 23%.

**Q.** Which “Uterine Weight compared to Controlled Animals” value [1] does the source give for `CC/C(=C(/c1ccc(OCCN(CC)CC)cc1)c1cccc(O)c1)c1ccccc1` [Compound 2] here?
**A.** Its value is -39%.

**Q.** With `CC/C(=C(/c1ccc(OCCNC)cc1)c1cccc(O)c1)c1ccccc1` [Compound 3] as the molecule, how does the “Uterine Weight compared to Controlled Animals” value [1] read?
**A.** Its value is -53%.

**Q.** What does the source list for `CC/C(=C(\c1ccccc1)c1ccc(OCCN(C)C)cc1)c1ccccc1` [Tamoxifen, reference compound]?
**A.** Uterine Weight compared to Controlled Animals [1]: -40%; abnormal growth of uterine epithelial cells [3]: causes abnormal growth of uterine epithelial cells
